# Test system: spontaneously hypertensive rats (SHR)
# Experiment: Hypotensive effect after oral administration, tail-cuff method
# Type: in vivo, rat
# Settings: SHR (male), 32 mg/kg body weight, 5 hours after administration vs before
# Method: Each of the casein hydrolysate powders prepared in Example and Comparative Examples shown in Table 1 were administered orally to five 27-week-old spontaneously hypertensive rats (SHR) (male) at a dose of 32 mg/kg body weight. Blood pressure was measured before the administration and 5 hours after the administration by tail-cuff method with Tail-cuff PB-98 (manufacture by SOFTRON) to evaluate the change in blood pressure. As a control, casein was administered instead of the powders, and the same evaluation was made. Before the measurement of blood pressure, rats were warmed in a preheat box (manufactured by CSI JAPAN) at 45° C. for 8 minutes.
# Further, in accordance with the above method, a dose-dependent hypotensive effect was tested using the casein hydrolysate powders prepared in Example 1.
substance,measurement,setting,value
casein [Control],Blood pressure drop (average ± SD),,−2.5 ± 7.5
same,Blood pressure drop (average ± SD),listed as casein,no change in blood pressure was observed

# Source: patent US8580557B2, “Casein hydrolyzate, process for producing the same and use thereof” (Calpis Co., Ltd., priority 2003, dated 2013)
